Data reported in the NIST ThermoML archive (doi:10.1016/j.tca.2015.08.013).
Numbers after ± are expanded uncertainties.

Conditions: for mass density / vapor or sublimation pressure / kinematic viscosity / speed of sound: Liquid; for mass density: Vibrating tube method; for vapor or sublimation pressure: Ebulliometric method (Recirculating still); for surface tension liquid-gas: Drop volume; for kinematic viscosity / speed of sound: 101.33 kPa; for kinematic viscosity: Capillary tube (Ostwald / Ubbelohde) method; for speed of sound: Sing-around technique in a fixed-path interferometer

c1ccoc1 [furan]
mass density (298.15 K, 60000 kPa): 985.81 ± 0.31 kg/m3 | vapor or sublimation pressure (298.44 K): 80.9 ± 0.23 kPa | vapor or sublimation pressure (299.63 K): 84.59 ± 0.23 kPa | surface tension liquid-gas (300.65 K): 22.55 ± 0.21 mN/m | mass density (300.65 K, 99 kPa): 928.357 ± 0.23 kg/m3 | kinematic viscosity (300.65 K): 3.7e-07 ± 8e-09 m2/s | speed of sound (300.65 K): 1120.9 ± 1.5 m/s | vapor or sublimation pressure (300.76 K): 88.22 ± 0.23 kPa | vapor or sublimation pressure (301.52 K): 90.81 ± 0.23 kPa | vapor or sublimation pressure (302.4 K): 93.89 ± 0.23 kPa | surface tension liquid-gas (303.15 K): 22.08 ± 0.21 mN/m | mass density (303.15 K, 99 kPa): 924.861 ± 0.23 kg/m3 | mass density (303.15 K, 100 kPa): 924.86 ± 0.29 kg/m3 | kinematic viscosity (303.15 K): 3.61e-07 ± 7.8e-09 m2/s | speed of sound (303.15 K): 1108.8 ± 1.5 m/s | mass density (303.15 K, 2500 kPa): 927.4 ± 0.3 kg/m3 | mass density (303.15 K, 5000 kPa): 930.33 ± 0.3 kg/m3 | mass density (303.15 K, 7500 kPa): 933.21 ± 0.3 kg/m3 | mass density (303.15 K, 10000 kPa): 936 ± 0.31 kg/m3 | mass density (303.15 K, 20000 kPa): 946.46 ± 0.32 kg/m3 | mass density (303.15 K, 30000 kPa): 956.04 ± 0.33 kg/m3 | mass density (303.15 K, 40000 kPa): 964.82 ± 0.33 kg/m3 | mass density (303.15 K, 50000 kPa): 972.99 ± 0.33 kg/m3 | mass density (303.15 K, 60000 kPa): 980.62 ± 0.32 kg/m3 | vapor or sublimation pressure (303.86 K): 99.07 ± 0.23 kPa | vapor or sublimation pressure (304.46 K): 101.33 ± 0.24 kPa | mass density (308.15 K, 2500 kPa): 920.6 ± 0.3 kg/m3 | mass density (308.15 K, 5000 kPa): 923.71 ± 0.3 kg/m3 | mass density (308.15 K, 7500 kPa): 926.73 ± 0.31 kg/m3 | mass density (308.15 K, 10000 kPa): 929.66 ± 0.31 kg/m3 | mass density (308.15 K, 20000 kPa): 940.5 ± 0.32 kg/m3 | mass density (308.15 K, 30000 kPa): 950.3 ± 0.33 kg/m3 | mass density (308.15 K, 40000 kPa): 959.34 ± 0.33 kg/m3 | mass density (308.15 K, 50000 kPa): 967.69 ± 0.33 kg/m3 | mass density (308.15 K, 60000 kPa): 975.44 ± 0.33 kg/m3 | mass density (313.15 K, 2500 kPa): 913.48 ± 0.3 kg/m3 | mass density (313.15 K, 5000 kPa): 916.68 ± 0.3 kg/m3 | mass density (313.15 K, 7500 kPa): 919.8 ± 0.31 kg/m3 | mass density (313.15 K, 10000 kPa): 922.81 ± 0.31 kg/m3 | mass density (313.15 K, 20000 kPa): 934.04 ± 0.33 kg/m3 | mass density (313.15 K, 30000 kPa): 944.27 ± 0.34 kg/m3 | mass density (313.15 K, 40000 kPa): 953.57 ± 0.34 kg/m3 | mass density (313.15 K, 50000 kPa): 962.21 ± 0.34 kg/m3 | mass density (313.15 K, 60000 kPa): 970.23 ± 0.34 kg/m3 | mass density (318.15 K, 2500 kPa): 906.59 ± 0.3 kg/m3 | mass density (318.15 K, 5000 kPa): 909.88 ± 0.3 kg/m3 | mass density (318.15 K, 7500 kPa): 913.18 ± 0.31 kg/m3 | mass density (318.15 K, 10000 kPa): 916.44 ± 0.31 kg/m3 | mass density (318.15 K, 20000 kPa): 928.06 ± 0.33 kg/m3 | mass density (318.15 K, 30000 kPa): 938.56 ± 0.34 kg/m3 | mass density (318.15 K, 40000 kPa): 948.09 ± 0.35 kg/m3 | mass density (318.15 K, 50000 kPa): 956.88 ± 0.35 kg/m3 | mass density (318.15 K, 60000 kPa): 965.06 ± 0.35 kg/m3 | mass density (323.15 K, 2500 kPa): 899.25 ± 0.3 kg/m3 | mass density (323.15 K, 5000 kPa): 902.71 ± 0.3 kg/m3 | mass density (323.15 K, 7500 kPa): 906.1 ± 0.31 kg/m3 | mass density (323.15 K, 10000 kPa): 909.42 ± 0.32 kg/m3 | mass density (323.15 K, 20000 kPa): 921.53 ± 0.33 kg/m3 | mass density (323.15 K, 30000 kPa): 932.47 ± 0.35 kg/m3 | mass density (323.15 K, 40000 kPa): 942.39 ± 0.35 kg/m3 | mass density (323.15 K, 50000 kPa): 951.44 ± 0.36 kg/m3 | mass density (323.15 K, 60000 kPa): 959.86 ± 0.36 kg/m3 | mass density (328.15 K, 2500 kPa): 892.18 ± 0.3 kg/m3 | mass density (328.15 K, 5000 kPa): 895.9 ± 0.31 kg/m3 | mass density (328.15 K, 7500 kPa): 899.49 ± 0.31 kg/m3 | mass density (328.15 K, 10000 kPa): 902.97 ± 0.32 kg/m3 | mass density (328.15 K, 20000 kPa): 915.52 ± 0.34 kg/m3 | mass density (328.15 K, 30000 kPa): 926.72 ± 0.35 kg/m3 | mass density (328.15 K, 40000 kPa): 936.8 ± 0.36 kg/m3 | mass density (328.15 K, 50000 kPa): 946.08 ± 0.36 kg/m3 | mass density (328.15 K, 60000 kPa): 954.71 ± 0.37 kg/m3 | mass density (333.15 K, 2500 kPa): 884.69 ± 0.3 kg/m3 | mass density (333.15 K, 5000 kPa): 888.51 ± 0.31 kg/m3 | mass density (333.15 K, 7500 kPa): 892.17 ± 0.31 kg/m3 | mass density (333.15 K, 10000 kPa): 895.74 ± 0.32 kg/m3 | mass density (333.15 K, 20000 kPa): 908.84 ± 0.34 kg/m3 | mass density (333.15 K, 30000 kPa): 920.52 ± 0.36 kg/m3 | mass density (333.15 K, 40000 kPa): 931.04 ± 0.37 kg/m3 | mass density (333.15 K, 50000 kPa): 940.62 ± 0.37 kg/m3 | mass density (333.15 K, 60000 kPa): 949.48 ± 0.37 kg/m3 | mass density (338.15 K, 2500 kPa): 877.34 ± 0.3 kg/m3 | mass density (338.15 K, 5000 kPa): 881.44 ± 0.31 kg/m3 | mass density (338.15 K, 7500 kPa): 885.37 ± 0.31 kg/m3 | mass density (338.15 K, 10000 kPa): 889.16 ± 0.32 kg/m3 | mass density (338.15 K, 20000 kPa): 902.71 ± 0.34 kg/m3 | mass density (338.15 K, 30000 kPa): 914.72 ± 0.36 kg/m3 | mass density (338.15 K, 40000 kPa): 925.5 ± 0.37 kg/m3 | mass density (338.15 K, 50000 kPa): 935.32 ± 0.38 kg/m3 | mass density (338.15 K, 60000 kPa): 944.34 ± 0.38 kg/m3
